Literature values as cited in US7816357B2, “Azabicyclic heterocycles as cannabinoid receptor modulators” (Bristol-Myers Squibb Company, priority 2003, dated 2010).

Tested on: human subjects
Settings: 16 week trial period, published Phase IIb data

Cc1c(C(=O)NN2CCCCC2)nn(-c2ccc(Cl)cc2Cl)c1-c1ccc(Cl)cc1 [SR-141716]
body weight in human subjects: dose-dependently reduced body weight
